From publication PMC10029155, “Harnessing protein sensing ability of electrochemical biosensors via a controlled peptide receptor–electrode interface” (Journal of Nanobiotechnology, 2023)

What was measured:
cathepsin L1 (CTSL1) = assay: SWV specificity test against CTSL1; type: binding; conditions: 125 nM protein
Protocol: (§1) A conventional three-electrode system including an Au working electrode (diameter: 5 mm, surface area: 19.6 mm^2), a Pt counter electrode, and an Ag/AgCl reference electrode, was used for the electrochemical measurements. The EIS, CV, and SWV measurements were conducted in the presence of 2.5 mM ferro/ferricyanide in 1 M KNO3 using a CHI 660E instrument (CH Instruments, Austin, TX, USA) at 25 °C. The EIS measurements were carried out by applying a 10 mV signal with a frequency ranging from 0.01 Hz to 100 kHz. The CV tests were performed between − 0.6 and 0.6 V (scan range) at a scan rate of 100 mVs^−1. […]
(§2) The electrochemical response of the phage sensor for cathepsin B detection was evaluated by the specificity analysis of the developed phage. […] The relative binding affinity of the phage-on-a-sensor with different phage concentrations was measured. […] The binding constants of the developed phage sensor and the relative current change (ΔI%) with different cathepsin B concentrations were measured by SWV.
(§3) To select potential high-affinity peptides from the phage clones, the five synthetic peptides were immobilized on the Au electrode via streptavidin–biotin and MUA-EDC/NHS coupling methods. Each preparation step of the peptide sensor was recorded using CV, EIS, and SWV (Additional file 1: Fig. S3a–c), and the relative binding affinities for cathepsin B were measured by SWV. […]

cathepsin S (CTSS) = assay: SWV specificity test against CTSS; type: binding; conditions: 125 nM protein
Protocol: as §1, §2, §3

cathepsin B [1] = target: T1, cathepsin B (Homo sapiens, UniProt P07858); assay: SWV electrochemical binding to cathepsin B (relative current change, binding constant); conditions: for relative binding affinity to cathepsin B (specificity): 125 nM protein, peptide 50 μM or phage ~10^12 PFU/mL immobilized
T1 construct: Cathepsin B proteins, purified from human liver (~ 27.5 kDa, > 95% purity); purchased ENZO (NY, USA); host or cells: purified from human liver
Protocol: A conventional three-electrode system including an Au working electrode (diameter: 5 mm, surface area: 19.6 mm^2), a Pt counter electrode, and an Ag/AgCl reference electrode, was used for the electrochemical measurements. The EIS, CV, and SWV measurements were conducted in the presence of 2.5 mM ferro/ferricyanide in 1 M KNO3 using a CHI 660E instrument (CH Instruments, Austin, TX, USA) at 25 °C. The EIS measurements were carried out by applying a 10 mV signal with a frequency ranging from 0.01 Hz to 100 kHz. The CV tests were performed between − 0.6 and 0.6 V (scan range) at a scan rate of 100 mVs^−1. The SWV tests were carried out in the potential range of − 0.4 to 0.6 V with an amplitude of 5 mV, frequency of 10 Hz, and a scan interval of 4 mV. The relative current change (ΔI%) was obtained by considering that the peak current decreased after the immobilization of the peptides and/or phages and cathepsin B protein interaction using the following equation:1 ΔI%=I0-I/I0×100 where I0 refers to phage-on-a-sensor, peptide-on-a-sensor, or peptide-on-a-AuNPs/MXene sensor and/or peptide oxidation current before cathepsin B introduction, and I refers to Au-protein oxidation current after cathepsin B introduction.

BSA = assay: SWV specificity test against BSA (control); type: binding; conditions: 125 nM protein, negative control protein
Protocol: as §1, §2, §3

cathepsin B [2] = target: T1, cathepsin B; assay: ELISA binding of peptide-displaying phage clones to immobilized biotinylated cathepsin B; conditions: 405 nm
Protocol: A 96 well streptavidin-coated microplate was washed three times with PBS, and the biotinylated cathepsin B was immobilized on it with mild shaking at 25 °C for 1 h. The unbound proteins were removed and blocked with a blocking buffer (5% BSA in NaHCO3) at 25 °C for 1 h. The wells were washed six times with 0.1% PBST, and 100 µL of the amplified phages (10^11 PFU/mL), i.e., the capture receptors, were added and incubated for 1 h at 25 °C. After washing six times with PBST again, the HRP-conjugated anti-M13 monoclonal antibodies (1:5000 dilution with blocking buffer), i.e., the detecting antibodies, were added and incubated at 25 °C for 1 h. The residual solution was discarded, and the microplate was washed again with the same buffer. Freshly prepared HRP substrate (ABTS) was added, and the absorbance was measured at 405 nm using a Multiskan FC microplate photometer (Thermo Scientific, Waltham, MA, USA).
The binding affinities of the selected phage clones for the immobilized cathepsin B were tested by ELISA. For these experiments, 250 nM of cathepsin B or the same amount of BSA as a negative control was immobilized on a well, followed by 10^11 PFU/mL of phage addition. The relative binding affinity of each phage was detected using HRP-conjugated M13 antibodies. […] The CTSB 4-1 clone was the only phage with a high binding affinity to cathepsin B, motivating further characterization of its binding interaction to confirm its specific binding to cathepsin B with increasing cathepsin B concentration (Fig. 2c).

Sequence	relative binding affinity to CTSL1 (specificity) (cathepsin L1 (CTSL1))	relative binding affinity to CTSS (specificity) (cathepsin S (CTSS))	relative binding affinity to cathepsin B (specificity) (cathepsin B [1])	relative binding affinity to BSA (specificity) (BSA)	relative binding affinity for cathepsin B (ELISA) (cathepsin B [2]; 250 nM cathepsin B immobilized, 10^11 PFU/mL phage, HRP-conjugated anti-M13 antibody, ABTS, 25 °C, 1 h, triplicate)	dose response of binding with cathepsin B concentration (cathepsin B [2]; cathepsin B 3.906 to 250 nM, ELISA)	SC50 (cathepsin B [2]; cathepsin B 6.25 to 250 nM, ELISA, printed in picture Fig. 2c) [nM]	relative binding affinity for all the tested proteins, comparison between peptides (cathepsin B [1]; 125 nM cathepsin B, CTSS, CTSL1 or BSA, peptide 50 μM)
HRHRRHRHRKHHK - biotin [CTSB BP4]	non-specific binding affinity	non-specific binding affinity	much lower binding affinity for cathepsin B than for CTSB BP3	non-specific binding affinity				
WDMWPSMDWKAE [CTSB 4-1, M13 phage clone displaying …, identified in four rounds of the biopanning]					strong cathepsin B binding	dose-dependent binding affinity with increasing cathepsin B concentration	44.27	
WDMWPSMDWKAEK - biotin [CTSB BP1]			did not bind to cathepsin B					comparable to those of CTSB BP2 and CTSB BP5
